Drawing on patent US20090270379A1, “QUINOLONE DERIVATIVES USEFUL AS ANTIBACTERIAL AGENTS” (priority 2008, published 2009), this text covers MIC for one compound.

Each structure is given as a SMILES string. ≈ marks a conversion by molar mass, not a printed value. Bounds are passed on as bounds.

What all share (assay type): cell-based
The test system of test [1] is Streptococcus pneumoniae ATCC 49619. The experiment in a line: In vitro antibacterial activity (MIC), microdilution broth method, strain E. Conditions: ATCC49619, 35° C., 16-20 hours. How it is done: (§1) Minimal inhibitory concentration (MIC) is an indicator of in vitro antibacterial activity. […] The in vitro antimicrobial activity of representative compounds of the present invention was determined by the microdilution broth method following the test method from the National Committee for Clinical Laboratory Standards (NCCLS). This method is described in the NCCLS Document M7-A4, Vol. 17, No. 2, “Methods for Dilution Antimicrobial Susceptibility Test for Bacteria that Grow Aerobically—Fourth Edition”, which is incorporated herein by reference.
(§2) In this method two-fold serial dilutions of drug in cation adjusted Mueller-Hinton broth were added to wells in microdilution trays. The test organisms were prepared by adjusting the turbidity of actively growing broth cultures so that the final concentration of test organism after it is added to the wells was approximately 5×10^4 CFU/well. Following inoculation of the microdilution trays, the trays were incubated at 35° C. for 16-20 hours and then read. The amount of growth in the wells containing the test compound was compared with the amount of growth in the growth-control wells (no test compound) used in each tray.
(§3) Representative compounds of the present invention were tested against a variety of pathogenic bacteria with results as listed in Table 3, below.

Test [2] has as its system strain D, fluoroquinolone-resistant clinical isolate of Streptococcus pneumoniae. The experiment in a line: In vitro antibacterial activity (MIC), microdilution broth method, strain D. Conditions: read-out: MIC (μg/mL) D. How it is done:
as §1, §2, §3
Background: Dilution methods test growth across graded concentrations, often in twofold steps.

The test system of test [3] is strain C, fluoroquinolone-resistant clinical isolate of Streptococcus pneumoniae. The experiment in a line: In vitro antibacterial activity (MIC), microdilution broth method, strain C. As to conditions: read-out: MIC (μg/mL) C. As to the method: as §1, §2, §3
For test [4], the system named is strain B, fluoroquinolone-resistant clinical isolate of Streptococcus pneumoniae. The experiment in a line: In vitro antibacterial activity (MIC), microdilution broth method, strain B. Conditions: read-out: MIC (μg/mL) B. How it is done: as §1, §2, §3
Test [5] has as its system Staphylococcus aureus OC4172. As to the kind of experiment: In vitro antibacterial activity (MIC), microdilution broth method, strain A. Conditions: cation adjusted Mueller-Hinton broth, 35° C., 16-20 hours. As to the method:
as §1, §2, §3

In the case of `C[C@H]1COc2c(-c3cc4n(c3)CCNC4)c(F)cc3c(=O)c(C(=O)O)cn1c23` [Compound 35, 8-Fluoro-3S-methyl-6-oxo-9-(1,2,3,4-tetrahydro-pyrrolo[1,2-a]pyrazin-7-yl)-2,3-dihydro-6H-1-oxa-3a-aza-phenalene-5-carboxylic acid], the MIC in test [1] was 2 µg/mL (≈ 5.22 µM); in test [2], more than 16 µg/mL; in test [3], more than 16 µg/mL; in test [4] it was more than 16 µg/mL; in test [5], 0.5 µg/mL (≈ 1.3 µM).
